Holding throughout (type): ADME, organism-based, Macaca mulatta
A short description of series [1]: Drug uptake in awake rhesus monkey midbrain after 2.3 mins postinjection. The settings on record: in vivo, 138 s.
Series [2] can be described thus: Ratio of drug uptake in midbrain to cerebellum in awake rhesus monkey after 45 mins postinjection. The note with it: in vivo, 0.75 h.
Series [3] is described as follows: Drug uptake in awake rhesus monkey brain midbrain after 13.5 mins postinjection. The settings on record: in vivo, 0.225 h.
The nature of series [4]: Ratio of drug uptake in thalamus to cerebellum in awake rhesus monkey after 10.5 mins postinjection. The note with it: in vivo, 0.175 h.
Series [5] in a line: Drug uptake in awake rhesus monkey brain medulla after 0.25 mins postinjection. The settings on record: in vivo, 15 s.

Take `O=C(OCC[18F])C1C2CCC(CC1c1ccc(/C=C\I)cc1)N2` (stereo not given): the Drug uptake in series [1] is listed as 0.39. In series [2], the Ratio worked out at 1.3.
With `O=C(OCC[18F])C1C2CCC(CC1c1cccc(/C=C\I)c1)N2` (stereo not given), the values for the Drug uptake in series [3] and in series [5] were 0.09 and 0, respectively. Also, the Ratio in series [4] is listed as 1.4.

The values are drawn from ChEMBL document CHEMBL1151757, “Synthesis, radiosynthesis, and biological evaluation of fluorine-18-labeled 2beta-carbo(fluoroalkoxy)-3beta-(3'-((Z)-2-haloethenyl)phenyl)nortropanes: candidate radioligands for in vivo imaging of the serotonin transporter with positron emission tomography” (J Med Chem, 2008).
